This passage reports inhibition results from patent publication US9238639B2, “Aromatic ring compound” (TAKEDA PHARMACEUTICAL COMPANY LIMITED, priority 2012, dated 2016).

Each structure is given as a SMILES string.

The target in the assay is T1, human GOAT (Homo sapiens, UniProt Q96T53).
T1 construct: made in house; host or cells: Sf9 insect cells (BacToBac baculovirus, pFastBac1 vector); microsome fraction
T1 sequence (Q96T53 1-435): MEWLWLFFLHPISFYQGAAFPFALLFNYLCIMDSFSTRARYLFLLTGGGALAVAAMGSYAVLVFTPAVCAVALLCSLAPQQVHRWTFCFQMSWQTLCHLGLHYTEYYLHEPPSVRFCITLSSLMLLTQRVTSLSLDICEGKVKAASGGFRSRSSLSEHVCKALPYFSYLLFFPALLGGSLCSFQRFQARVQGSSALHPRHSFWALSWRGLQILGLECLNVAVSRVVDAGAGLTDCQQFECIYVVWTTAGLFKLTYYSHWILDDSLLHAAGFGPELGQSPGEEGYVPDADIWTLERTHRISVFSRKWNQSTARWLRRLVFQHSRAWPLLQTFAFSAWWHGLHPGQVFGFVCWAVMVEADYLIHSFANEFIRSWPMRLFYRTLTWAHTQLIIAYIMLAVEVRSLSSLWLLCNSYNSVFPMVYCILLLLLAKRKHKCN
The assay is described as follows: GOAT enzyme activity measurement by HTRF method (human GOAT-expressing microsome fraction). The format is biochemical. Conditions: 10 μM compound; human GOAT-expressing Sf9 microsome fraction; octanoyl-CoA and Ghrelin-biotin substrates; 0% control without compound, 100% control without enzyme. How it is done: Human GOAT (Accession NO: EU518495) cDNA was amplified by PCR including reaction of (1) 98° C., 1 min, (2) 35 repeats of 98° C., 10 sec·65° C., 15 sec·72° C., 80 sec, and (3) 72° C., 5 min, using human stomach cDNA library (Takara Bio) as a template and Pyrobest DNA Polymerase (Takara Bio). The amplified fragment was treated with restriction enzymes, inserted into Stu I/Not I sites of pFastBacl (Invitrogen) by using Ligation High (TOYOBO), and transfected into ECOS JM109 (Nippon Gene) to construct pFB/hGOAT.
Production of Baculovirus and Preparation of Insect Cell Microsome Fraction
For preparation of baculovirus from pFB/hGOAT, BacToBac baculovirus expression system (Invitrogen) was used. The virus titer was measured by Real-Time PCR using SYBR Green (Takara Bio). Sf9 cells were infected with the obtained baculovirus at Multiplicity of Infection (MOI)=0.2, and cultured for 70 hr. The Sf9 cells were recovered, suspended in a suspension buffer (TBS (0.3 M NaCl), 1 mM DTT, 1 mM EDTA, Complete (Roche) (1 tablet/50 mL)), and the cells were disrupted twice on ice at 20000 rpm, 30 sec using a polytron homogenizer. The cell disruption solution was centrifuged at 1000 rpm for 10 min at 4° C., the supernatant was further ultracentrifuged at 40000 rpm for 30 min at 4° C. and the precipitate was recovered. The obtained precipitate was suspended in the suspension buffer used above to give a human GOAT-expressing microsome fraction. The protein level was measured using BCA Protein assay Reagent (PIERCE).
Enzyme Activity Measurement by HTRF Method
A compound solution (2 μL) diluted with an assay buffer containing 50 mM Tris-HCl (pH 7.5), 0.5% TWEEN20, and Complete to 15% DMSO and 90 μg/mL human GOAT-expressing microsome fraction (2 μL) were incubated at room temperature for 20 min, after which a substrate mixed solution (2 μL) containing 30 μM octanoyl-CoA (CHEM-IMPLEX) and 3 μM Ghrelin-biotin ([…]epsilon aminocaproic acid-biotin (Greiner Coutom synthesis)) was added to 384 white small volume plate (Greiner). After reaction for 20 min, 2 μL of citrate buffer (pH3) (mixed solution of 0.1 M citric acid (39.8 mL) and 0.2 M Na2HPO4 (10.2 mL)), 2 μL of 25 nM anti-active ghrelin antibody (produced in mouse), 5 μL of Eu(K)-Anti Mouse IgG Pab (Cis Bio) 100-fold diluted with HTRF detection buffer (Cis Bio) and 5 μL of streptavidin-Xlent (Cis Bio) 66.6-fold diluted with HTRF detection buffer (Cis Bio) were added. After incubation at room temperature for 1 hr or longer, the fluorescence values at 620 nm and 665 nm were measured by Envision (PerkinElmer). The data was calculated [(665 nm signal/620 nm signal)×10^4], and the inhibitory activity against human GOAT was shown by the data where 0% control was without compound, and 100% control was without enzyme.
In general terms: In TR-FRET formats the signal depends on donor and acceptor labels being close together.

The term inhibition denotes the drop in the measured response relative to a control, in per cent.

As to `CCOC(=O)Cc1csc2cc(OCc3cc(C(F)(F)F)nn3C)ccc12` [Example 17, Ethyl(6-((1-methyl-3-(trifluoromethyl)-1H-pyrazol-5-yl)methoxy)-1-benzothiophen-3-yl)acetate], the inhibition at 10 µM is 88.9%.

For the compound `Cn1nc(C(F)(F)F)cc1COc1ccc2c(CC(=O)O)csc2c1` [Example 18, (6-((1-Methyl-3-(trifluoromethyl)-1H-pyrazol-5-yl)methoxy)-1-benzothiophen-3-yl)acetic acid], the inhibition at 10 µM came to 98.2%.

Turning to `COC(=O)Cc1csc2cc(OCc3cc(C(F)(F)F)nn3C)cc(Cl)c12` [Example 21, Methyl(4-chloro-6-((1-methyl-3-(trifluoromethyl)-1H-pyrazol-5-yl)methoxy)-1-benzothiophen-3-yl)acetate], the inhibition at 10 µM was 100%.

For `Cn1nc(C(F)(F)F)cc1COc1cc(Cl)c2c(CC(=O)O)csc2c1` [Example 22, (4-Chloro-6-((1-methyl-3-(trifluoromethyl)-1H-pyrazol-5-yl)methoxy)-1-benzothiophen-3-yl)acetic acid], the inhibition at 10 µM was found to be 105%.

In the case of `COC(=O)Cc1csc2c(C)c(OCc3ccc(C(F)(F)F)nc3C)cc(C)c12` [Example 23, Methyl(4,7-dimethyl-6-((2-methyl-6-(trifluoromethyl)pyridin-3-yl)methoxy)-1-benzothiophen-3-yl)acetate], the inhibition at 10 µM was 62.8%.

Turning to `Cc1nc(C(F)(F)F)ccc1COc1cc(C)c2c(CC(=O)O)csc2c1C` [Example 24, (4,7-Dimethyl-6-((2-methyl-6-(trifluoromethyl)pyridin-3-yl)methoxy)-1-benzothiophen-3-yl)acetic acid], the inhibition at 10 µM turned out to be 105%.

Take `COC(=O)Cc1csc2cc(OCc3cc(C)nn3C)cc(Cl)c12` [Example 25, Methyl(4-chloro-6-((1,3-dimethyl-1H-pyrazol-5-yl)methoxy)-1-benzothiophen-3-yl)acetate]: the inhibition at 10 µM is 97.4%.

Consider `Cc1cc(COc2cc(Cl)c3c(CC(=O)O)csc3c2)n(C)n1` [Example 26, (4-Chloro-6-((1,3-dimethyl-1H-pyrazol-5-yl)methoxy)-1-benzothiophen-3-yl)acetic acid], for which the inhibition at 10 µM worked out at 105%.

With `COC(=O)Cc1csc2c(Cl)c(OCc3cc(C(F)(F)F)nn3C)cc(Cl)c12` [Example 27, Methyl(4,7-dichloro-6-((1-methyl-3-(trifluoromethyl)-1H-pyrazol-5-yl)methoxy)-1-benzothiophen-3-yl)acetate], the inhibition at 10 µM was 92.7%.

For `Cn1nc(C(F)(F)F)cc1COc1cc(Cl)c2c(CC(=O)O)csc2c1Cl` [Example 28, (4,7-Dichloro-6-((1-methyl-3-(trifluoromethyl)-1H-pyrazol-5-yl)methoxy)-1-benzothiophen-3-yl)acetic acid], the inhibition at 10 µM amounted to 105%.

`COC(=O)Cc1csc2c(Cl)c(OCc3ccc(C(F)(F)F)nc3C)cc(Cl)c12` [Example 29, Methyl(4,7-dichloro-6-((2-methyl-6-(trifluoromethyl)pyridin-3-yl)methoxy)-1-benzothiophen-3-yl)acetate]: the inhibition at 10 µM was found to be 88.1%.

For `Cc1nc(C(F)(F)F)ccc1COc1cc(Cl)c2c(CC(=O)O)csc2c1Cl` [Example 30, (4,7-Dichloro-6-((2-methyl-6-(trifluoromethyl)pyridin-3-yl)methoxy)-1-benzothiophen-3-yl)acetic acid], the inhibition at 10 µM came out at 106%.

In the case of `Cc1ccc(COc2cc(C(F)(F)F)c3c(CC(=O)O)csc3c2)c(C)n1` [Example 31, (6-((2,6-Dimethylpyridin-3-yl)methoxy)-4-(trifluoromethyl)-1-benzothiophen-3-yl)acetic acid], the inhibition at 10 µM is 103%.

As to `Cn1nc(C(F)(F)F)cc1COc1cc(C(F)(F)F)c2c(CC(=O)O)csc2c1` [Example 32, (6-((1-Methyl-3-(trifluoromethyl)-1H-pyrazol-5-yl)methoxy)-4-(trifluoromethyl)-1-benzothiophen-3-yl)acetic acid], the inhibition at 10 µM is 103%.
